Columns and labels:
PET/CT imaging = type: in vivo, female NIH Swiss mice; conditions: normal mice; for Route of excretion: PET imaging; for PET: radioactivity at 4 h after injection / PET: radioactivity at 24 h after injection: static imaging
Experimental: PET/CT Imaging. PET imaging with 89Zr-DFO or 89Zr-DOTA was performed on healthy female NIH Swiss mice (6-8 wk old, n=6) using a small animal PET/CT scanner (eXplore VISTA model, GE Healthcare, Waukesha, WI). Before imaging, each mouse was anesthetized by inhalation of isoflurane mixed with oxygen gas (3% isoflurane for induction and 1-2% for maintenance) and a tail vein catheter was placed on the tail. The mouse was then positioned in the imaging cradle and a CT scan was performed for the subsequent attenuation correction and anatomical colocalization. After the CT scan, 89Zr-DFO or 89Zr-DOTA (11.1-12.5 MBq (300-338 µCi) in 100 µL saline/ mouse) was administered through the tail vein catheter, and a dynamic PET scan was simultaneously initiated and acquired for 1 hour to record the initial distribution and pharmacokinetics. Mice were re-anesthetized at 2, 4 and 24 hours, and a static PET scan was acquired for 20 min as late-phase scans. PET images were reconstructed using 2D ordered subset expectation maximization (2D-OSEM) algorithms with random, scatter, and attenuation corrections and then coregistered with the CT image. The PET system was calibrated using a Zr-89 phantom with known activity. Standard uptake value (SUV = [(nCi/mL) x (animal wt. (g))/ injected dose (nCi)]) and the measure of %ID/g was then calculated voxel-wise with the calibration factor and normalization to the injected dose and animal body weight. For dynamic scans, data were binned into 19 time frames with the following schemes: 6x10s, 2x30s, 3x60s, 5x5min, 3x10min. The tissue uptake curves were generated from the dynamic scans with regions of interest (ROIs) manually placed in heart, liver, kidney, bone, and muscle. Biodistribution data at 2, 4 and 24 hours were obtained from the PET images, with regions of interest placed in corresponding organs or tissues.

[1] = Behaviour of the complex in solution in vitro; type: physicochemical; conditions: unless a low concentration of surfactant was included

Route of excretion (PET/CT imaging)	PET: radioactivity at 24 h after injection (PET/CT imaging)	SMILES	PET: radioactivity at 4 h after injection (PET/CT imaging)	Behaviour in solution without surfactant [1]
excreted renally	still visible	CC(=O)N1CCCCCNC(=O)CCC(=O)N2CCCCCNC(=O)CCC(=O)N(CCCCCN)[O][89Zr+]([O]1)[O]2 [89Zr-DFO, reference compound]	more radioactivity accumulated in the kidneys	–
–	–	NC(=O)CN1CCN(CC(N)=O)CCN(CC(N)=O)CCN(CC(N)=O)CC1.[89Zr+4] [89Zr-DOTAM]	–	aggregated and precipitated out of solution
excreted renally	barely above background levels	O=C1CN2CCN3CCN4CCN(CC2)CC(=O)[O][89Zr]([O]1)([O]C(=O)C3)[O]C(=O)C4 [89Zr-DOTA]	nearly all the radioactivity was excreted	–

— PMC5363373, “Zirconium tetraazamacrocycle complexes display extraordinary stability and provide a new strategy for zirconium-89-based radiopharmaceutical development” (Chemical Science, 2016)
